Experiments:
[1] = tested on: cytokines Granzyme B, IFN-γ, and IL-2; assay: ELISA of cytokines in supernatant of co-cultured E0771-EGFRvIII cells and CAR-T cells; format: cell-based, mouse; settings: E0771-EGFRvIII co-culture
Description: (§1) Olaparib pretreatment group: different concentrations of olaparib (1 μM, 5 μM) are added to the medium for culturing E0771-EGFRVIII or 4T1-EGFRvIII tumor cells respectively, culturing at 37° C. for 24 h, and then the cells are treated with trypsin and resuspended in fresh medium. The untreated mouse T cells and 806-mCD28z-CAR T cells in Example 1 are respectively taken to incubate with E0771-EGFRvIII or 4T1-EGFRVIII cells pretreated with different concentrations of olaparib at a ratio of 1:3, 1:1, and 3:1; 16 hours later, the secretion of LDH in the supernatant is detected by Cytox 96 Non-Radioactive Cytotoxicity Assay, then calculating the killing toxicity of 806-mCD28z CAR T cells to tumor cells pretreated with different concentrations of olaparib. For specific detection steps and calculation methods, see the instructions of Promaga. Cytox 96 Non-Radioactive Cytotoxicity Assay (Promaga, REF: G1782); at the same time, the secretions of cytokines Granzyme B, IFN-γ, and IL-2 in the supernatant are detected by ELISA kit (Lianke Biotech Co. Ltd. CAT: 18^.22), for specific experimental procedures, referring to instructions of MouseGranzyme B, IFN-γ, IL-2 ELISA kit from Lianke Biotech Co, Ltd.
Olaparib combined treatment group: different concentrations of olaparib (1 μM, 5 μM) are added to the medium for culturing E0771-EGFRVIII or 4T1-EGFRvIII tumor cells respectively, culturing at 37° C. for 24 h, and then the cells are treated with trypsin and resuspended in fresh medium. The untreated mouse T cells and 806-mCD28z-CAR T cells in Example 1 are respectively taken to incubate with E0771-EGFRvIII or 4T1-EGFRvIII cells treated with different concentrations of olaparib at a ratio of 1:3, 1:1, and 3:1; after corresponding concentrations of olaparib (1 μM, 5 μM) are added to treat the cells continuously for 16 hours, the secretion of LDH in the supernatant is detected by Cytox 96 Non-Radioactive Cytotoxicity Assay, then calculating the killing toxicity of 806-mCD28z CAR T cells to tumor cells pretreated with different concentrations of olaparib. […]

4T1-EGFRvIII cells = assay: LDH cytotoxicity assay, CAR-T killing of olaparib-treated 4T1-EGFRvIII cells; format: cell-based, mouse
Description: The experimental groups for incubating with cells that are positive for the antigen target comprises the following 4 groups: UTD group, 806-mCD28z-CAR-T group (or denoted as 806-28Z), olaparib pretreatment group, and olaparib combined treatment group;
the olaparib pretreatment group comprises: UTD+1 μM olaparib pretreatment group (or denoted as UTD+Olaparib 1 μM pretreatment), UTD+5 μM olaparib pretreatment group (or denoted as UTD+Olaparib 5 μM pretreatment), 806-mCD28z-CAR-T+1 μM olaparib pretreatment group (or denoted as 806-28Z+Olaparib 1 μM pretreatment). 806-mCD28z-CAR-T+5 μM olaparib pretreatment group (or denoted as 806-28Z+Olaparib 5 μM pretreatment); […]
as §1, with “of olaparib. […] Cytox 96” for “of olaparib. For specific detection steps and calculation methods, see the instructions of Promaga. Cytox 96”, “Co, Ltd. […]” for “Co, Ltd.”

[2] = olaparib pretreatment and combined treatment groups vs CAR-T single treatment group

O=C(c1cc(Cc2n[nH]c(=O)c3ccccc23)ccc1F)N1CCN(C(=O)C2CC2)CC1 [olaparib]
level of Granzyme B in the supernatant [1, 2]: do not increase significantly
level of IL-2 in the supernatant [1, 2]: do not increase significantly
level of IFN-γ in the supernatant ([1]; olaparib pretreatment group and olaparib combined treatment group vs CAR-T single treatment group): significantly increased
lethal effect on 4T1-EGFRvIII cells compared with the CAR-T single treatment group (4T1-EGFRvIII cells; 5 μM olaparib combined treatment group): higher synergistic lethal effect
promotion of the killing effect of CAR-T cells on 4T1-EGFRvIII cells (4T1-EGFRvIII cells; 5 μM olaparib pretreatment group, better than 5 μM combined treatment group): most significant
killing effect of CAR-T cells on 4T1-EGFRvIII cells (4T1-EGFRvIII cells; olaparib 1 μM or 5 μM, pretreatment or combined treatment, vs CAR-T alone, ratio 1:3, 1:1, 3:1, 16 hours, LDH): significantly improved

From patent US20230158071A1, “TUMOR COMBINED IMMUNOTHERAPY” (CRAGE medical Co., Limited, priority 2018, published 2023)
